One series has as its system Bacillus pyocyaneus. Description: in vitro MIC on 100 strains of Bacillus pyocyaneus. Type of series: cell-based. The following applies: Pseudomonas aeruginosa, read-out: minimum inhibiting concentration. As for the experimental part: In vitro tests on the activity of the compound of Example 1 were also carried out so as to determine the activity of that compound on Bacillus pyocyaneus. The results of determining the minimum inhibiting concentration on 100 different strains are as follows: […]

Series [1] in a line: acute toxicity, intragastric, rats. The following applies: rat, in vivo, po, both after 48 hours and after 14 days. As for the experimental part: The LD50 was calculated by the graphic method of J. T. Lichtfield and F. Wilcoxon (J. Pharm. Exp. Ther. 1949, 96: 99-[…]).
The nature of series [2]: aggressiveness to the skin by repeated application. Type of series: in vivo. The source says:
The method used is the method described in the Official Journal of Apr. 28, 1971 for the analysis of cosmetics and beauty products, and comprises applying 0.5 cc of 2% solution over a period of 1 month to the two zones treated, one normal, the other raw, a control zone being reserved on the hindquarters of the animal.

The test system of another series is Enterbacter cloacae. As to the kind of experiment: bacteriostatic activity (MIC), Enterbacter cloacae. Conditions: 48 h, Table I, 37° C., read-out: MIC. Type of series: cell-based. The protocol: The medium containing the solution to be tested is inoculated in the form of three single striae with a 10^-5 times dilution of a bacterial culture aged 16 to 18 hours grown in salted peptone broth at a temperature of 37° C. After inoculation, the media are stored at 37° C. for 48 hours, after which the bacterial growth is inspected. The MIC (minimum inhibiting concentrations) are expressed in micrograms of pure product per cubic centimeter of gelose medium required for inhibiting the culture (μg/cc). The control substance used is benzalconium chloride.

For series [3], the system named is spores of B. subtilis var. Niger. As to the kind of experiment: sporostatic activity (b), porous membrane with rinses. Type of series: cell-based. The source says:
(b) A porous membrane 0.45μ thick is placed aseptically in a sterile filter support, covered with 10 cc of sterile distilled water containing 1 cc of mother solution of the product, followed by the addition of 1 cc of a suspension of spores of B. subtilis var. Niger containing approximately 40 spores. These liquids are drawn through the membrane, after which the membrane is transferred aseptically to a culture medium and placed in an oven. The operation is recommenced using up to 5 rinses of the membrane per 10 cc of sterile distilled water. The number of colonies developing is then determined.

A further series deals with Escherichia coli. Description: bacteriostatic activity (MIC), Escherichia coli. Type of series: cell-based. Conditions: for MIC: Escherichia coli, 48 h; for M.I.C.: hydrochloride. As for the experimental part: The medium containing the solution to be tested is inoculated in the form of three single striae with a 10^-5 times dilution of a bacterial culture aged 16 to 18 hours grown in salted peptone broth at a temperature of 37° C.
After inoculation, the media are stored at 37° C. for 48 hours, after which the bacterial growth is inspected. The MIC (minimum inhibiting concentrations) are expressed in micrograms of pure product per cubic centimeter of gelose medium required for inhibiting the culture (μg/cc). The control substance used is benzalconium chloride.
Tests were also carried out to determine the bacteriostatic activity of other compounds according to the invention by the method described above and in comparison with known substances, in particular with benzalconium chloride (compound T in the Tables).

From patent US4196217A, “Hydroxylated amines with bacteriostatic activity” (priority 1978, dated 1980) come the findings set out here.

Several values for one entry are separate records, joined by “and”; a condition that tells them apart may be missing. Identical values can stand only once. Like-named read-outs stand apart in the source and are kept apart here.

As a reminder, the LD50 is the dose at which mortality reaches 50%. Read a low LD50 as a more toxic substance. On to `CCCCCCCCCCOCC(O)CN.Cl` (stereo not drawn) [Compound 1, 3-decyloxy-2-hydroxy-1-aminopropane hydrochloride], for which the MIC with Bacillus pyocyaneus (10 of 100 strains) worked out at 100 µg/mL; with Bacillus pyocyaneus (20 of 100 strains), 25 µg/mL; with Bacillus pyocyaneus (70 of 100 strains), 50 µg/mL; in the series on Enterbacter cloacae (with 20% of serum), 80 µg/mL; in the series on Enterbacter cloacae (without serum) it was 30 µg/mL; in the series on Escherichia coli (Table I, with 20% of serum, 37° C., 48 hours, read-out: MIC), 75 µg/mL. Besides, the MIC was 20 µg/mL in the series with Escherichia coli (Table I, without serum, 37° C., 48 hours, read-out: MIC); 60 µg/mL in the series on Escherichia coli (Table VI, bacteriostase containing 20% of serum, read-out: M.I.C.); 20 µg/mL in the series on Escherichia coli (Table VI, bacteriostase without serum, read-out: M.I.C.). Also, the LD50 in series [1] amounted to 1300 mg/kg. Further, in series [2] (0.5 cc of 2% solution over 1 month), the “histological examination of skin” value is listed as “did not reveal any significant modification”. Moreover, in series [2] (0.5 cc of 2% solution over 1 month, normal and raw zones), the “local tolerance (skin)” value is given as “Good local tolerance”. For the same compound, in series [2] (blood from the ear vein on completion of the test), the haematological examination entry is given as “normal blood formula”. For the same compound, the “number of colonies (No = 37)” value in series [3] (0 rinses of the membrane) was 3; in series [3] (1 rinse of the membrane) it was 4; in series [3] (2 rinses of the membrane) it was 35; in series [3] (3 rinses of the membrane), 38; in series [3] (4 rinses of the membrane), 48; in series [3] (5 rinses of the membrane) it was 55. The M.I.C. is 80 μg/cc and 75 μg/cc and 100 μg/cc in the series with Escherichia coli (Table VI, bacteriostase containing 20% of serum); 25 μg/cc and 40 μg/cc in the series with Escherichia coli (Table VI, bacteriostase without serum).
